Laboratory results published in PubChem BioAssay (NCI).
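The compound was tested at five concentrations on cells cultured in 96-well plates, with a 48-hour exposure period. GI50 = concentration required for 50% inhibition of growth. The concentration for full growth arrest is given as TGI.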

How the values were obtained:
Assay in all cases: NCI tumour cell line growth inhibition, 48 h
OVCAR-8 ovarian = system: OVCAR-8 ovarian
MOLT-4 leukemia = system: MOLT-4 leukemia
UO-31 renal = system: UO-31 renal
HCT-15 colon = system: HCT-15 colon
SK-MEL-2 melanoma = system: SK-MEL-2 melanoma
SF-268 CNS = system: SF-268 CNS
A549 NSCLC = system: A549 NSCLC
SNB-19 CNS = system: SNB-19 CNS
SNB-75 CNS = system: SNB-75 CNS
U251 CNS = system: U251 CNS
HS 578T breast = system: HS 578T breast
HCT-116 colon = system: HCT-116 colon
HOP-62 NSCLC = system: HOP-62 NSCLC
OVCAR-5 ovarian = system: OVCAR-5 ovarian
IGROV1 ovarian = system: IGROV1 ovarian
NCI-H522 lung = system: NCI-H522 lung
CCRF-CEM leukemia = system: CCRF-CEM leukemia
SF-295 CNS = system: SF-295 CNS
NCI-H226 lung = system: NCI-H226 lung
DU-145 prostate = system: DU-145 prostate
SF-539 CNS = system: SF-539 CNS
NCI-H460 lung = system: NCI-H460 lung
EKVX NSCLC = system: EKVX NSCLC
MDA-MB-231 breast = system: MDA-MB-231 breast
ACHN renal = system: ACHN renal
MCF7 breast = system: MCF7 breast
BT-549 breast = system: BT-549 breast
COLO 205 colon = system: COLO 205 colon
CAKI-1 renal = system: CAKI-1 renal
UACC-62 melanoma = system: UACC-62 melanoma
KM12 colon = system: KM12 colon
OVCAR-3 ovarian = system: OVCAR-3 ovarian
A498 renal = system: A498 renal
SK-MEL-5 melanoma = system: SK-MEL-5 melanoma
UACC-257 melanoma = system: UACC-257 melanoma
M14 melanoma = system: M14 melanoma
MDA-MB-435 = system: MDA-MB-435
LOX IMVI melanoma = system: LOX IMVI melanoma
MALME-3M melanoma = system: MALME-3M melanoma
HT29 colon = system: HT29 colon
SK-MEL-28 melanoma = system: SK-MEL-28 melanoma
SK-OV-3 ovarian = system: SK-OV-3 ovarian
SW-620 colon = system: SW-620 colon
NCI/ADR-RES ovarian = system: NCI/ADR-RES ovarian
K-562 leukemia = system: K-562 leukemia
SN12C renal = system: SN12C renal
OVCAR-4 ovarian = system: OVCAR-4 ovarian
786-0 renal = system: 786-0 renal
NCI-H23 lung = system: NCI-H23 lung
TK-10 renal = system: TK-10 renal
HOP-92 NSCLC = system: HOP-92 NSCLC
SR leukemia = system: SR leukemia
HL-60(TB) leukemia = system: HL-60(TB) leukemia
T-47D breast = system: T-47D breast
RXF 393 renal = system: RXF 393 renal
PC-3 prostate = system: PC-3 prostate
HCC-2998 colon = system: HCC-2998 colon

O=C(CN(C1CCCCC1)C1CCCCC1)Nc1ccc(S(=O)(=O)c2ccc(NC(=O)CN(C3CCCCC3)C3CCCCC3)cc2)cc1
GI50 (OVCAR-8 ovarian): 0.701 µM | TGI (OVCAR-8 ovarian): 3.71 µM | GI50 (MOLT-4 leukemia): 0.293 µM | TGI (MOLT-4 leukemia): 2.7 µM | GI50 (UO-31 renal): 1.24 µM | TGI (UO-31 renal): 2.56 µM | GI50 (HCT-15 colon): 0.181 µM | TGI (HCT-15 colon): 0.568 µM | GI50 (SK-MEL-2 melanoma): 1.35 µM | TGI (SK-MEL-2 melanoma): 3.5 µM | GI50 (SF-268 CNS): 0.337 µM | TGI (SF-268 CNS): 1.6 µM | GI50 (A549 NSCLC): 1.33 µM | TGI (A549 NSCLC): 3.26 µM | GI50 (SNB-19 CNS): 0.656 µM | TGI (SNB-19 CNS): 2.18 µM | GI50 (SNB-75 CNS): 2.27 µM | TGI (SNB-75 CNS): 9.32 µM | GI50 (U251 CNS): 0.234 µM | TGI (U251 CNS): 0.742 µM | GI50 (HS 578T breast): 1.03 µM | TGI (HS 578T breast): 6.9 µM | GI50 (HCT-116 colon): 0.158 µM | TGI (HCT-116 colon): 0.396 µM | GI50 (HOP-62 NSCLC): 1.2 µM | TGI (HOP-62 NSCLC): 3.56 µM | GI50 (OVCAR-5 ovarian): 1.13 µM | TGI (OVCAR-5 ovarian): 2.52 µM | GI50 (IGROV1 ovarian): 0.421 µM | TGI (IGROV1 ovarian): 1.6 µM | GI50 (NCI-H522 lung): 0.394 µM | TGI (NCI-H522 lung): 1.24 µM | GI50 (CCRF-CEM leukemia): 0.222 µM | TGI (CCRF-CEM leukemia): 1.28 µM | GI50 (SF-295 CNS): 1.5 µM | TGI (SF-295 CNS): 2.96 µM | GI50 (NCI-H226 lung): 2.06 µM | TGI (NCI-H226 lung): 9.43 µM | GI50 (DU-145 prostate): 1.14 µM | TGI (DU-145 prostate): 2.38 µM | GI50 (SF-539 CNS): 0.37 µM | TGI (SF-539 CNS): 1.46 µM | GI50 (NCI-H460 lung): 0.382 µM | TGI (NCI-H460 lung): 1.63 µM | GI50 (EKVX NSCLC): 1.41 µM | TGI (EKVX NSCLC): 2.88 µM | GI50 (MDA-MB-231 breast): 0.432 µM | TGI (MDA-MB-231 breast): 1.63 µM | GI50 (ACHN renal): 1.17 µM | TGI (ACHN renal): 2.4 µM | GI50 (MCF7 breast): 0.299 µM | TGI (MCF7 breast): 1.62 µM | GI50 (BT-549 breast): 0.506 µM | TGI (BT-549 breast): 1.91 µM | GI50 (COLO 205 colon): 0.28 µM | TGI (COLO 205 colon): 0.841 µM | GI50 (CAKI-1 renal): 1.14 µM | TGI (CAKI-1 renal): 2.35 µM | GI50 (UACC-62 melanoma): 0.595 µM | TGI (UACC-62 melanoma): 2.05 µM | GI50 (KM12 colon): 0.585 µM | TGI (KM12 colon): 2.05 µM | GI50 (OVCAR-3 ovarian): 0.279 µM | TGI (OVCAR-3 ovarian): 1.02 µM | GI50 (A498 renal): 11.4 µM | TGI (A498 renal): 27.9 µM | GI50 (SK-MEL-5 melanoma): 0.395 µM | TGI (SK-MEL-5 melanoma): 1.65 µM | GI50 (UACC-257 melanoma): 1.37 µM | TGI (UACC-257 melanoma): 3.66 µM | GI50 (M14 melanoma): 0.373 µM | TGI (M14 melanoma): 1.69 µM | GI50 (MDA-MB-435): 0.873 µM | TGI (MDA-MB-435): 2.35 µM | GI50 (LOX IMVI melanoma): 0.239 µM | TGI (LOX IMVI melanoma): 0.845 µM | GI50 (MALME-3M melanoma): 0.334 µM | TGI (MALME-3M melanoma): 1.3 µM | GI50 (HT29 colon): 0.39 µM | TGI (HT29 colon): 1.44 µM | GI50 (SK-MEL-28 melanoma): 1.21 µM | TGI (SK-MEL-28 melanoma): 2.82 µM | GI50 (SK-OV-3 ovarian): 8.64 µM | TGI (SK-OV-3 ovarian): 21.6 µM | GI50 (SW-620 colon): 0.228 µM | TGI (SW-620 colon): 0.65 µM | GI50 (NCI/ADR-RES ovarian): 0.89 µM | TGI (NCI/ADR-RES ovarian): 6.31 µM | GI50 (K-562 leukemia): 0.277 µM | TGI (K-562 leukemia): 1.38 µM | GI50 (SN12C renal): 1.33 µM | TGI (SN12C renal): 2.73 µM | GI50 (OVCAR-4 ovarian): 0.942 µM | TGI (OVCAR-4 ovarian): 2.58 µM | GI50 (786-0 renal): 0.941 µM | TGI (786-0 renal): 2.39 µM | GI50 (NCI-H23 lung): 1.02 µM | TGI (NCI-H23 lung): 2.61 µM | GI50 (TK-10 renal): 2.24 µM | TGI (TK-10 renal): 6.03 µM | GI50 (HOP-92 NSCLC): 1.39 µM | TGI (HOP-92 NSCLC): 2.93 µM | GI50 (SR leukemia): 0.224 µM | TGI (SR leukemia): 1.52 µM | GI50 (HL-60(TB) leukemia): 1.02 µM | TGI (HL-60(TB) leukemia): 3.23 µM | GI50 (T-47D breast): 1.15 µM | TGI (T-47D breast): 3.74 µM | GI50 (RXF 393 renal): 0.817 µM | TGI (RXF 393 renal): 2.31 µM | GI50 (PC-3 prostate): 0.985 µM | TGI (PC-3 prostate): 2.35 µM | GI50 (HCC-2998 colon): 1.7 µM | TGI (HCC-2998 colon): 3.22 µM
